Marks after values point to notes of the source that are not given here.
Key:
The Stability to Light = format: physicochemical; details: 10 days, HPLC
Thermal Stability = format: physicochemical; details: 60° C., 10 days, HPLC
[1] = system: model rats of middle cerebral artery thrombosis (MCAT); experiment: Effects on neural symptoms of MCAT rats; format: in vivo, SD rats; parameters: key to Scores 6 hours / Scores 24 hours: 0/1 per test, summed (max 4); higher = more severe behavioral disorder; details: for Scores 6 hours: behavioral score 6 h after operation (full mark 4); for Scores 24 hours: behavioral score 24 h after operation (full mark 4)
Procedure: (1) Grouping and administration: […] Preventive administration was conducted by gavage one time per day for 3 days prior to the model being established. The model was established on day 4, and a dosage of one day was administered by gavage immediately after the model was established. Another dosage of one day was again administered by gavage 12 hours after the model was established. Equivalent amount of the vehicle was administered to the control group. […] Description of technique and early neuropathological consequences following middle cerebral artery occlusion. J Cereb Blood Flow Metab, 1981, 1: 53), and fixed in lateral decubitus position. A bowtype incision of 1.5 cm long was made at the midpoint between canthus and exterior auditory canal. Temporalis was broken and incised to expose temporal bone. […] The filter paper was removed after 30 min when the vascular became black. The localized tissue was washed with physiological brine, and sutured layer by layer. Then rats were placed back into the cages. By following the modified method of Bederson et al. […] (2) The animals were placed onto a smooth ground, and the resistance of contralateral shoulder to push was examined. “0” was recorded if the resistance of both shoulders were equal and strong; and “1” was recorded if the resistance of contralateral shoulder to push was decreased. […] (4) The tail of the rat was lifted 30 cm high away from the ground, and “1” was recorded if the animals ceaselessly circled contralaterally. “4” was full mark in accordance with the above-mentioned standard. The higher the score was, more severe the behavioral disorder of the animal was. 4. Results: The behavioral scores in each group were compared by student t test.

[2] = system: model rats of middle cerebral artery thrombosis (MCAT); experiment: Effects on cerebral infarct area of MCAT rats; format: in vivo, SD rats; details: for Cerebral infarct tissue weight/total brain weight (%): 24 h after operation, TTC staining; for Inhibition (%): cerebral infarct vs. model group; for cerebral infarct as compared with the model group (in words): 50 mg/kg, P<0.05
[3] = system: thrombus of artery-vein bypass in rats; experiment: Effects on thrombosis of artery-vein bypass in rats; format: in vivo, SD rats; details: for Dry-weight of thrombus / Wet-weight of thrombus: once per day for 3 days; for Inhibition (%) of dry-weight of thrombus / Inhibition (%) of wet-weight of thrombus: vs. thrombus model group
Procedure: Testing methods are described in Chen-Qi, “Methodology for Pharmacological Research of Chinese Medicine”,People's Medical Publishing House, Sep. 1993, 1st ed., page 510. […] Equivalent amount of the vehicle was administered to the thrombus model group. The operation was conducted immediately after the final administration. […] The operation was conducted to separate the right common carotid artery and the left external jugular vein. A pre-weighed suture # 0 of 8 cm long was placed into the middle part of a polyethylene tube of 10 cm long. Then the tube was filled with normal saline, and connected at both ends to the cannula of 3 cm long filled with normal saline. One end of the tube was inserted into the left external jugular vein, and another end was inserted into the right common carotid artery. The blood flowed from the right common carotid artery to the polyethylene tube, and then flow back to the left external jugular vein, so as to construct a bypass circulation. […] The wet-weight of the thrombus was obtained by subtracting the weight of the suture and the paper from this total wet weight. […] The thrombus was taken out and weighed to obtain a total dry weight. The dry weight of the thrombus was obtained by subtracting the weight of the suture and the paper form this total dry weight. The results in each group were compared by student's t test. […] Testing Results

[4] = The Stability to Humidity (high humidity test); format: physicochemical; details: 10 days, HPLC purity
[5] = The Stability of Aqueous Solution; details: for wt % decomposed product: aqueous solution 0.2 mg/ml; for decomposed product detected (in words): after exposed to water for 24 hours
Procedure: Compounds were dissolved in water to form aqueous solutions in a concentration of 0.2 mg/ml, and the amount of decomposed products were measured.
The amounts of decomposed products were determined in accordance with the test described in Pharmacopoeia of P.R. China, 2000 edition, appendix VD of part two, by HPLC method, C18 column, mobile phase of acetonitrile:0.02M sodium dihydrogen phosphate=40:60, detecting wavelength of 230 nm, flow rate of 1 ml/min.

[6] = 50 mg/kg by gavage, vs. model group
[7] = 100 mg/kg by gavage, vs. model group
[8] = 200 mg/kg by gavage, vs. model group

Row | Molecule | decomposed product detected, stability to light (in words) (The Stability to Light) | decomposed product detected, thermal stability (in words) (Thermal Stability) | Scores 6 hours ([1]; 50 mg/kg by gavage) | Scores 24 hours ([1]; 50 mg/kg by gavage) | % inhibition at hour 24 [1, 6] [%] | Scores 6 hours ([1]; 100 mg/kg by gavage) | Scores 24 hours ([1]; 100 mg/kg by gavage) | % inhibition at hour 24 [1, 7] [%] | Scores 6 hours ([1]; 200 mg/kg by gavage) | Scores 24 hours ([1]; 200 mg/kg by gavage) | % inhibition at hour 24 [1, 8] [%] | Cerebral infarct tissue weight/total brain weight (%) ([2]; 50 mg/kg by gavage) | Inhibition (%) ([2]; 50 mg/kg by gavage) | cerebral infarct as compared with the model group (in words) [2] | Cerebral infarct tissue weight/total brain weight (%) ([2]; 100 mg/kg by gavage) | Inhibition (%) ([2]; 100 mg/kg by gavage) | Cerebral infarct tissue weight/total brain weight (%) ([2]; 200 mg/kg by gavage) | Inhibition (%) ([2]; 200 mg/kg by gavage) | wt % decomposed product ([5]; 0 hr) [wt %] | wt % decomposed product ([5]; 1 hr) [wt %] | also measured
1 | CCCCC(=O)c1ccccc1C(=O)O.CCCCC(=O)c1ccccc1C(=O)O.c1ccc(CNCCNCc2ccccc2)cc1 [2-(α-n-pentanonyl)benzoate of N,N′-dibenzylethylene diamine] | no decomposed product | no decomposed product | 3.45 ± 0.69 | 2.91 ± 0.70 | 20.05 | 3.45 ± 0.52 | 2.36 ± 0.67 | 36.73 | 3.27 ± 0.79 | 2.55 ± 0.52 | 31.64 | 5.14 ± 2.17 | 30.63 | significantly reduced | 4.68 ± 1.69 | 41.06 | 4.60 ± 1.26 | 39.55 |  |  | Dry-weight of thrombus ([3]; 50 mg/kg by gavage): 39.0 ± 10.8 mg; Wet-weight of thrombus ([3]; 50 mg/kg by gavage): 207.1 ± 45.3 mg; Inhibition (%) of dry-weight of thrombus ([3]; 50 mg/kg by gavage): 23.98%; Inhibition (%) of wet-weight of thrombus ([3]; 50 mg/kg by gavage): 20.10%; Dry-weight of thrombus ([3]; 100 mg/kg by gavage): 29.9 ± 13.6 mg; Wet-weight of thrombus ([3]; 100 mg/kg by gavage): 157.9 ± 67.9 mg; Inhibition (%) of dry-weight of thrombus ([3]; 100 mg/kg by gavage): 41.72%; Inhibition (%) of wet-weight of thrombus ([3]; 100 mg/kg by gavage): 39.08%; Dry-weight of thrombus ([3]; 200 mg/kg by gavage): 32.3 ± 12.5 mg; Wet-weight of thrombus ([3]; 200 mg/kg by gavage): 191.7 ± 34.8 mg; Inhibition (%) of dry-weight of thrombus ([3]; 200 mg/kg by gavage): 37.04%; Inhibition (%) of wet-weight of thrombus ([3]; 200 mg/kg by gavage): 26.04%
2 | CCCCC(O)c1ccccc1C(=O)[O-].[K+] (stereo not drawn) [Potassium 2-(α-hydroxypentyl)benzoate] |  |  | 3.50 ± 0.71 | 3.30 ± 0.48 |  | 3.55 ± 0.52 | 3.00 ± 0.89 |  | 3.45 ± 0.52 | 2.73 ± 0.79 |  | 6.16 ± 2.46 | 16.87 |  | 5.73 ± 2.20 | 27.83 | 5.37 ± 2.00 | 29.43 | 0 | 0.2 | decomposition after absorbing moisture (in words) [4]: highly decomposed; wt % decomposed product ([5]; 2 hr): 0.36 wt %; wt % decomposed product ([5]; 4 hr): 0.75 wt %; wt % decomposed product ([5]; 16 hr): 4.5 wt %; wt % decomposed product ([5]; 24 hr): 5.3 wt %
3 | CCCCC(=O)c1ccccc1C(=O)[O-].[K+] [Potassium 2-(α-n-pentanonyl)benzoate, potassium 2-(α-n-pentanonyl)benzoate] | no decomposed product | no decomposed product | 3.27 ± 0.79 | 2.91 ± 0.70 |  | 3.36 ± 0.67 | 2.82 ± 0.75 |  | 3.20 ± 0.63 | 2.10 ± 0.32***^,s |  | 5.63 ± 1.52 | 24.02 | significantly reduced | 5.09 ± 2.04 | 35.89 | 4.38 ± 1.54 | 42.44 | 0 | 0 | Dry-weight of thrombus ([3]; 50 mg/kg by gavage): 38.3 ± 15.4 mg; Wet-weight of thrombus ([3]; 50 mg/kg by gavage): 208.8 ± 45.3 mg; Inhibition (%) of dry-weight of thrombus ([3]; 50 mg/kg by gavage): 25.34%; Inhibition (%) of wet-weight of thrombus ([3]; 50 mg/kg by gavage): 19.44%; Dry-weight of thrombus ([3]; 100 mg/kg by gavage): 35.6 ± 14.0 mg; Wet-weight of thrombus ([3]; 100 mg/kg by gavage): 192.6 ± 41.2 mg; Inhibition (%) of dry-weight of thrombus ([3]; 100 mg/kg by gavage): 30.60%; Inhibition (%) of wet-weight of thrombus ([3]; 100 mg/kg by gavage): 25.69%; Dry-weight of thrombus ([3]; 200 mg/kg by gavage): 28.3 ± 16.3 mg; Wet-weight of thrombus ([3]; 200 mg/kg by gavage): 157.0 ± 51.4 mg; Inhibition (%) of dry-weight of thrombus ([3]; 200 mg/kg by gavage): 44.83%; Inhibition (%) of wet-weight of thrombus ([3]; 200 mg/kg by gavage): 39.43%; decomposed product detected (in words) [5]: no decomposed product; wt % decomposed product ([5]; 2 hr): 0 wt %; wt % decomposed product ([5]; 4 hr): 0 wt %; wt % decomposed product ([5]; 16 hr): 0 wt %; wt % decomposed product ([5]; 24 hr): 0 wt %
4 | CCCCC(=O)c1ccccc1C(=O)[O-].[Na+] [Sodium 2-(α-n-pentanonyl)benzoate, sodium 2-(α-n-pentanonyl)benzoate] | no decomposed product | no decomposed product |  |  |  |  |  |  |  |  |  |  |  | significantly reduced |  |  |  |  | 0 | 0 | decomposed product detected (in words) [5]: no decomposed product; wt % decomposed product ([5]; 2 hr): 0 wt %; wt % decomposed product ([5]; 4 hr): 0 wt %; wt % decomposed product ([5]; 16 hr): 0 wt %; wt % decomposed product ([5]; 24 hr): 0 wt %
5 | Calcium 2-(α-hydroxypentyl)benzoate |  |  | 3.45 ± 0.52 | 3.36 ± 0.50 | 7.69 | 3.55 ± 0.52 | 3.09 ± 0.70 | 17.16 | 3.45 ± 0.52 | 2.91 ± 0.54 | 21.98 | 6.39 ± 2.33 | 13.77 |  | 5.82 ± 1.90 | 26.70 | 5.41 ± 1.77 | 28.91 |  |  | 
6 | N,N′-dibenzylethylenediamine 2-(α-hydroxypentyl)benzoate |  |  | 3.45 ± 0.52 | 3.09 ± 0.54 | 15.11 | 3.45 ± 0.52 | 2.91 ± 0.70 | 21.98 | 3.36 ± 0.67 | 2.82 ± 0.87 | 24.40 | 5.85 ± 2.32 | 21.05 |  | 5.50 ± 1.82 | 30.73 | 5.09 ± 2.14 | 33.11 |  |  | alleviation on neural symptoms at 24 hours after the operation (in words) ([1]; 50 mg/kg, vs. model group, P<0.01 or P<0.05): significantly alleviation

Source: patent US20070203233A1, “NOVEL 2-(alpha-N-PENTANONYL)BENZOATES, THEIR PREPARATION AND USE” (priority 2004, published 2007)
